By IC50 is commonly meant the point on the concentration scale where inhibition reaches its midpoint.

The target in the first assay is human recombinant ATX (Homo sapiens, UniProt Q13822). Put plainly: Enzyme inhibition test (choline release from LPC, Amplex UltraRed fluorescence). Format: biochemical. Particulars: 200 μM LPC substrate, 1 hr at room temperature, read-out: Experimental Example 1 human ATX IC50. As to the method: [Enzyme Inhibition Test Method]
A mixture (10 μL) of substrate and a set of choline quantification reagents (200 μM LPC (1-Oleoyl-sn-glycero-3-phosphocholine Sigma #L1881), 25 μM Amplex UltraRed reagent (Invitrogen), 0.1 U/mL Peroxidase (TOYOBO), 1 U/mL Choline oxidase (TOYOBO)), prepared with assay buffer (50 mM Tris (pH 8.0), 140 mM NaCl, 5 mM KCl, 1 mM CaCl2, 1 mM MgCl2, 0.1% BSA (Albumin from bovine serum, SIGMA), 0.0025% Triton X-100), enzyme (0.4 ng/μL human recombinant ATX) (10 μL), compound-containing solution (100 nL) were dispensed to a 384-well plate, incubated at room temperature for 1 hr and the fluorescence (Ex. 525 nm/Em. 598 nm) was measured. As the standard, choline chloride was used. With a blank free of enzyme was taken as inhibitory rate 100%, and a control free of inhibitor as inhibitory rate 0%, the inhibitory rate was calculated, and IC50 value was calculated from the inhibitory activity percentage at each concentration.
As for `COc1ccc(-c2cncc(OCc3ccc(OC(F)(F)F)cc3)c2)cc1[C@@H]1C[C@H]1C(=O)O` (relative stereo) [Example 2, trans-2-[2-methoxy-5-(5-{[4-(trifluoromethoxy)benzyl]oxy}pyridin-3-yl)phenyl]cyclopropanecarboxylic Acid], the IC50 turned out to be 9 nM.

On to `O=C(O)c1cccc(C2CN(c3cncc(OC[C@H]4CC[C@H](C(F)(F)F)CC4)c3)CCO2)c1` (relative stereo) [Example 13, 3-[4-(5-{[trans-4-(trifluoromethyl)cyclohexyl]methoxy}pyridin-3-yl)morpholin-2-yl]benzoic Acid], for which the half-inhibitory concentration (IC50) was 3 nM.

`COc1ccc(-c2cnnc(OC[C@H]3CC[C@H](C(F)(F)F)CC3)c2)cc1[C@H]1C[C@@H]1C(=O)O` [Example 1-1, (1S,2S)-2-[2-methoxy-5-(6-{[trans-4-(trifluoromethyl)cyclohexyl]methoxy}pyridazin-4-yl)phenyl]cyclopropanecarboxylic Acid]: the IC50 came to 1 nM.

Turning to `O=C(O)c1cncc(C2CN(c3cncc(OC[C@H]4CC[C@H](C(F)(F)F)CC4)c3)CCO2)c1` (some centres unmarked) [Example 52], the IC50 came out at 7 nM.

In the case of `COc1cc(C2CN(c3cncc(OC[C@H]4CC[C@H](C(F)(F)F)CC4)c3)CCO2)cnc1C(=O)O` (some centres unmarked) [Example 53], the IC50 was 1 nM.

In the case of `COc1cc(C2CN(c3cncc(OC[C@H]4CC[C@H](C(F)(F)F)CC4)c3)CCO2)ncc1C(=O)O` (some centres unmarked) [Example 54], the IC50 came to 5 nM.

On to `Cc1cc(C2CN(c3cncc(OC[C@H]4CC[C@H](C(F)(F)F)CC4)c3)CCO2)cnc1C(=O)O` (some centres unmarked) [Example 55], for which the IC50 came out at 2 nM.

For `Cc1cc(C2CN(c3cncc(OC[C@H]4CC[C@H](C(F)(F)F)CC4)c3)CCO2)ncc1C(=O)O` (some centres unmarked) [Example 56], the IC50 stood at 7 nM.

As for `Cc1nc(C2CN(c3cncc(OC[C@H]4CC[C@H](C(F)(F)F)CC4)c3)CCO2)ccc1C(=O)O` (some centres unmarked) [Example 57], the IC50 came to 7 nM.

`Cc1ccc(C2CN(c3cncc(OC[C@H]4CC[C@H](C(F)(F)F)CC4)c3)CCO2)nc1C(=O)O` (some centres unmarked) [Example 58]: the IC50 came to 4 nM.

Turning to `Cc1ncc(C2CN(c3cncc(OC[C@H]4CC[C@H](C(F)(F)F)CC4)c3)CCO2)cc1C(=O)O` (some centres unmarked) [Example 59], the IC50 came to 5 nM.

Regarding `Cc1cnc(C2CN(c3cncc(OC[C@H]4CC[C@H](C(F)(F)F)CC4)c3)CCO2)cc1C(=O)O` (some centres unmarked) [Example 60], the IC50 was 5 nM.

As to `Cc1cnc(C2CN(c3cncc(OC[C@H]4CC[C@H](C(F)(F)F)CC4)c3)CCO2)cc1C(=O)O` (some centres unmarked) [Example 61], the IC50 was found to be 15 nM.

As to `O=C(O)c1cc(C2CN(c3cncc(OC[C@H]4CC[C@H](C(F)(F)F)CC4)c3)CCO2)ncc1C(F)(F)F` (some centres unmarked) [Example 62], the IC50 came out at 1 nM.

Regarding `O=C(O)c1ccc(C2CN(c3cncc(OCc4ccc(OC(F)(F)F)cc4)c3)CCO2)nc1` (centres unmarked) [Example 63], the IC50 is 7 nM.

As for `O=C(O)c1cncc(C2CN(c3cncc(OCc4ccc(OC(F)(F)F)cc4)c3)CCO2)c1` (centres unmarked) [Example 64], the IC50 amounted to 1 nM.

Turning to `O=C(O)c1ccnc(C2CN(c3cncc(OCc4ccc(OC(F)(F)F)cc4)c3)CCO2)c1` (centres unmarked) [Example 65], the IC50 was 16 nM.

On to `Cc1cc(C2CN(c3cncc(OCc4ccc(OC(F)(F)F)cc4)c3)CCO2)cnc1C(=O)O` (centres unmarked) [Example 66], for which the IC50 was 5 nM.

On to `O=C(O)c1cccc(C2CCN(c3cncc(OCc4ccc(OC(F)(F)F)cc4)c3)C2)c1` (centres unmarked) [Example 67], for which the IC50 came out at 13 nM.

Regarding `O=C(O)c1ccc(C2CCCN2c2cncc(OCc3ccc(OC(F)(F)F)cc3)c2)cc1` (centres unmarked) [Example 68], the IC50 was 14 nM.

Turning to `O=C(O)CC[C@@H]1CN(c2cncc(OCc3ccc(OC(F)(F)F)cc3)c2)CCO1` [Example 69], the half-inhibitory concentration (IC50) was found to be 152 nM.

As to `O=C(O)CC[C@H]1CN(c2cncc(OCC3CCN(CC(F)(F)F)CC3)c2)CCO1` [Example 70], the IC50 was determined as 135 nM.

For the compound `O=C(O)CC[C@H]1CN(c2cncc(OCC3CCCCC3)c2)CCO1` [Example 71], the IC50 stood at 104 nM.

On to `O=C(O)CC[C@H]1CN(c2cncc(OCC3CCC4(CCC4)CC3)c2)CCO1` [Example 72], for which the 50% inhibitory concentration (IC50) was 8 nM.

Turning to `O=C(O)CC[C@H]1CN(c2cncc(OCC3CCC4(CC3)CC4)c2)CCO1` [Example 73], the IC50 amounted to 9 nM.

For `CC1(C)CCC(COc2cncc(N3CCO[C@@H](CCC(=O)O)C3)c2)CC1` [Example 74], the IC50 was 10 nM.

Turning to `O=C(O)CC[C@H]1CN(c2cncc(OCC3CCC(F)(F)CC3)c2)CCO1` [Example 75], the 50% inhibitory concentration (IC50) amounted to 68 nM.

As for `O=C(O)CC[C@H]1CN(c2cncc(OC[C@H]3CC[C@@H](C(F)(F)F)CC3)c2)CCO1` [Example 76], the IC50 is 78 nM.

As to `O=C(O)CC[C@H]1CN(c2cncc(OCc3ccc(F)cc3)c2)CCO1` [Example 77], the 50% inhibitory concentration (IC50) is 381 nM.

`O=C(O)CC[C@H]1CN(c2cncc(OCc3ccc(Cl)cc3)c2)CCO1` [Example 78]: the IC50 was found to be 91 nM.

As to `O=C(O)CC[C@H]1CN(c2cncc(OCc3cccc(Cl)c3)c2)CCO1` [Example 79], the IC50 is 189 nM.

Regarding `O=C(O)CC[C@H]1CN(c2cncc(OCc3ccccc3Cl)c2)CCO1` [Example 80], the IC50 is 493 nM.

Take `O=C(O)CC[C@H]1CN(c2cncc(OCc3ccc(SC(F)(F)F)cc3)c2)CCO1` [Example 81]: the half-maximal inhibitory concentration (IC50) was 12 nM.

In the case of `O=C(O)CC[C@H]1CN(c2cncc(OCc3ccc(OC(F)(F)F)c(Cl)c3)c2)CCO1` [Example 85], the IC50 was 29 nM.

On to `O=C(O)CC[C@H]1CN(c2cncc(COc3ccc(C(F)(F)F)cc3)c2)CCO1` [Example 86], for which the concentration for half-maximal inhibition (IC50) was determined as 129 nM.

Consider `C[C@H]1CN(c2cncc(OCc3ccc(OC(F)(F)F)cc3)c2)C[C@H](CCC(=O)O)O1` [Example 88], for which the IC50 turned out to be 133 nM.

Consider `CC1(C(=O)O)CC1[C@H]1CN(c2cnnc(OC[C@H]3CC[C@H](C(F)(F)F)CC3)c2)CCO1` (some centres unmarked) [Example 89], for which the IC50 was 9 nM.

Regarding `O=C(O)C1CN(c2cncc(OCc3ccc(OC(F)(F)F)cc3)c2)CCO1` (centres unmarked) [Example 90], the IC50 is 419 nM.

Turning to `O=C(O)CCC1CCCN(c2cncc(OCc3ccc(OC(F)(F)F)cc3)c2)C1` (centres unmarked) [Example 91], the 50% inhibitory concentration (IC50) worked out at 24 nM.

For the compound `O=C(O)CCCC1CN(c2cncc(OCc3ccc(OC(F)(F)F)cc3)c2)CCO1` (centres unmarked) [Example 94], the IC50 was determined as 32 nM.

For the compound `O=C(O)CCCC1COCCN1c1cncc(OCc2ccc(OC(F)(F)F)cc2)c1` (centres unmarked) [Example 95], the IC50 stood at 36 nM.

Turning to `O=C(O)COC[C@@H]1CCCN1c1cncc(OCc2ccc(OC(F)(F)F)cc2)c1` [Example 96], the IC50 came out at 19 nM.

In the case of `O=C(O)CC1CCN(c2cncc(OCc3ccc(OC(F)(F)F)cc3)c2)C1` (centres unmarked) [Example 97], the IC50 is 378 nM.

As to `O=C(O)CCC1CCN(c2cncc(OCc3ccc(OC(F)(F)F)cc3)c2)C1` (centres unmarked) [Example 98], the IC50 was determined as 120 nM.

In the case of `O=C(O)CCCC1CCN(c2cncc(OCc3ccc(OC(F)(F)F)cc3)c2)C1` (centres unmarked) [Example 99], the IC50 is 50 nM.

For `O=C(O)CCC1CCCN1c1cncc(OCc2ccc(OC(F)(F)F)cc2)c1` (centres unmarked) [Example 100], the IC50 came out at 204 nM.

Take `O=C(O)/C=C/C1CCCN1c1cncc(OCc2ccc(OC(F)(F)F)cc2)c1` (centres unmarked) [Example 101]: the IC50 stood at 113 nM.

Another assay concerns the target T1, ATX activity in plasma (Rattus norvegicus, UniProt Q64610).
T1 construct: from tissue; host or cells: plasma of male Wistar rats after oral dosing
Put plainly: Measurement of ATX activity in plasma (ex vivo), rat single administration test.
Conditions: not given
Also on record: species or system male Wistar rat. As to the method: [Measurement of ATX Activity in Plasma (Ex Vivo)]
A compound administration solution prepared by wet pulverization in a mixer mill (type: MM400) for 10 min and adjusting to a given concentration with 0.5% aqueous carboxymethylcellulose solution was orally administered to male Wistar rat (5-week-old when used) at 5 mL/kg. Blood samples were collected from the cervical vein over time at 8 to 24 hr after administration. The blood was heparin-treated using a micro blood collection tube Capiject (CJ-AL, TERUMO CORPORATION), and the plasma was separated by centrifugation (4° C., 12,000 rpm, for 2 min), and preserved at −80° C. The rats after blood sampling were euthanized by exsanguination from the caudal vena cava under isoflurane inhalation anesthesia. The measurement of ATX activity in plasma was evaluated using the concentration of choline in the plasma, which was liberated from lysophosphatidylcholine (substrate of ATX) by the lysophospholipase D activity of ATX, as an index. An equal amount of 2× assay buffer (200 mM Tris-HCl pH9.0, 10 mM MgCl2, 1 M NaCl, 0.1% Triton X-100) is added to plasma (12 μL) and reacted at 37° C. for 6 hr. The reaction mixture (10 μL) after reaction for 6 hr and 45 μL of reagent R^1 solution (100 mM Tris-HCl pH 8.0, 0.5 mM TOOS, 10 U/mL peroxidase, 0.01% Triton X-100) were added and blended and absorbance at 550-700 nm was measured and used as a prevalue. As the standard, choline chloride was used. 1 mM choline chloride was diluted with 2× assay buffer up to 7 steps in 2-fold serial dilution, R^1 solution was treated similarly and the absorbance was measured. Furthermore, 15 μL of reagent R^2 solution (100 mM Tris-HCl pH 8.0, 1 mM 4-aminoantipyrine, 10 U/mL choline oxidase, 0.01% Triton X-100) was added, and the mixture was reacted at room temperature for 10 min, and absorbance at 550-700 nm was measured. The choline concentration per reaction time was calculated from the difference between the absorbance after R^2 solution addition and prevalue measured before R^2 addition and used as ATX activity value. inhibitory activity (%)=100×{1−[choline concentration (μM) of test substance administration group/choline concentration (μM) of solvent control group]} <calculating formula>
Consider `COc1ccc(-c2cncc(OCc3ccc(OC(F)(F)F)cc3)c2)cc1[C@@H]1C[C@H]1C(=O)O` (relative stereo) [Example 2, trans-2-[2-methoxy-5-(5-{[4-(trifluoromethoxy)benzyl]oxy}pyridin-3-yl)phenyl]cyclopropanecarboxylic Acid], for which the “Experimental Example 2 Rat single administration test (inhibitory activity (%) 8 hr after 1 mg/kg oral administration)” value came out at 72%.

With `O=C(O)c1cccc(C2CN(c3cncc(OC[C@H]4CC[C@H](C(F)(F)F)CC4)c3)CCO2)c1` (relative stereo) [Example 13, 3-[4-(5-{[trans-4-(trifluoromethyl)cyclohexyl]methoxy}pyridin-3-yl)morpholin-2-yl]benzoic Acid], the “Experimental Example 2 Rat single administration test (inhibitory activity (%) 8 hr after 1 mg/kg oral administration)” value was found to be 71%.

Turning to `COc1ccc(-c2cnnc(OC[C@H]3CC[C@H](C(F)(F)F)CC3)c2)cc1[C@H]1C[C@@H]1C(=O)O` [Example 1-1, (1S,2S)-2-[2-methoxy-5-(6-{[trans-4-(trifluoromethyl)cyclohexyl]methoxy}pyridazin-4-yl)phenyl]cyclopropanecarboxylic Acid], the “Experimental Example 2 Rat single administration test (inhibitory activity (%) 8 hr after 1 mg/kg oral administration)” value is given as 94%.

Source of the values: patent US11958812B2, “3, 5-disubstituted pyridine and 3, 5-disubstituted pyridazine derivatives and pharmaceutical use of same” (MITSUBISHI TANABE PHARMA CORPORATION, priority 2018, dated 2024).
